Literature values, collected in US20050276865A1, “Peroxide compounds for the prevention and treatment of sexual dysfunction in humans” (priority 2004, published 2005).

Experiments:
[1] = system: men with ED; details: injection into the corpus cavernosum (Montorsi et al. 1997)
[2] = not given; remark: listed apart in the source

Solubility in water [2]	Stability in aqueous medium ([2]; aqueous medium)	SMILES	Men who achieved improved spontaneous erections and required less frequent injections [1]	Irritancy as reported (NTF Chemical Repository)	Toxicity and carcinogenicity concerns (according to many studies (Haywood et al. 1991))
		CCCCC[C@H](O)/C=C/[C@H]1[C@H](O)CC(=O)[C@@H]1CCCCCCC(=O)O [prostaglandin E1]	28%		
water-soluble	highly unstable	NC(N)=O.OO [Carbamide peroxide, carbamide peroxide]		irritant	unfounded
